{"source": "patent US9259404B2", "about": "(NESTEC S.A., priority 2012, dated 2016)", "key": {"[1]": {"tested_on": "Nrf2", "test": "Nrf2 reporter assay (AREc32 cell line, luciferase under control of the ARE)", "type": "cell-based", "conditions": "AREc32 cells, 24 h, dose range 0 to 200 μM (FIG. 3)", "description": "Activation of Nrf2 was measured using an Nrf2 reporter assay. This assay is based on the AREc32 cell line, from CRX biosciences (Dundee, Scotland), a stably transfected MCF7 (breast adenocarcinoma) cell line that contains a luciferase gene construct under the control of the ARE. Luciferase is an enzyme which digests luciferin and produces […]. Anti-oxidative molecules such as Tert-butylhydroquinone (TBHQ) induce luciferase transcription via the activation of Nrf2 that binds to ARE. Luciferase activity is determined using a luciferase kit form Promega (Madison, Wis.). The luciferase activity is proportional to the activation of Nrf2. […] The luciferase activity and the cell viability (ATP measurements) were determined using the Luciferase and Cell Titer-Glo kits from Promega. For each run the luciferase activities, measured in Relative Light Units (RLU), of all the wells were normalized with the mean of the luciferase activity of the cells only of all the plates. Among all the samples tested the normalization procedure was found not to affect the data and this observation permits the comparison of samples measured in different runs. For each sample the Nrf2 activation was calculated as follows: […] […] The luciferase content per sample allows a semi quantification of the Nrf2 activation by reflecting the amount of the Nrf2 activating molecule. […]"}, "[2]": {"tested_on": "AREc32 cells", "test": "Cell viability of AREc32 cells (ATP quantification, Cell Titer-Glo)", "type": "cell-based", "conditions": "24 h", "description": "The cell viability, measured by ATP quantification, is expressed as relative percentages of control (untreated) cells. The results are expressed as means of technical triplicates±SD and are representative of four independent experiments.\nTo determine the Nrf2 activation the samples were tested on AREC32 cells (seeded in 96 well plates) using 10 independent dilutions (1/2, 1/4, 1/6, 1/10, 1/15, 1/20, 1/25, 1/30, 1/40 and 1/50) and incubated for 24 hours at 37° C. in a 5% CO2/air incubator. The luciferase activity and the cell viability (ATP measurements) were determined using the Luciferase and Cell Titer-Glo kits from Promega.\nThe cell viability was also measured using a cell Titer-Glo kit (ATP quantification)."}, "[3]": {"tested_on": "neuron astrocyte co-cultures", "test": "Neuron-astrocyte co-culture, oxidative stress induced by hydrogen peroxide, MTT assay", "type": "cell-based, mouse", "conditions": "48 hours pre-treatment, 100 μM hydrogen peroxide 4 hours", "from_the_text": "The beneficial effect of compounds on cell survival is classically investigated by challenging the cell cultures with neurotoxic insults and measuring the resulting oxidative stress and excitotoxicity over a limited period of time (Aksenova et al., Current Neurovascular Research, 2, 73-89 (2005)). […] The model consists of primary neurons plated on glass coverslips that face astrocytes seeded on the bottom of a culture dish. The two cellular compartments are separated by paraffin beads, but released compounds (e.g., energy substrates and glutathione precursors) can freely diffuse from one compartment to the other through the culture medium. Primary cultures of mouse neurons are grown for 12 days in Neurobasal™ medium on 20 mm diameter glass coverslips. Primary cultures of mouse astrocytes are grown for 21 days in astrocytes culture medium in 35 mm diameter dishes. Two hours before initiation of the co-culture, the astrocyte medium is removed and replaced by a fresh neuronal medium. The co-culture is initiated by putting the glass coverslips bearing neurons in the dishes containing astrocyte culture so that neurons face astrocytes. […] For detection this purple product is solubilised for colorimetric quantification at 560 nm using a spectrophotometer."}, "[4]": {"conditions": "background statement; cited from earlier work"}}, "note": "“Also recorded” adds a separate entry of the source.", "data": [{"smiles": "CC(=O)/C=C/C(=O)O", "note": "[4-oxo-2-pentenoic acid]", "values": [{"measurement": "Nrf2 activation (in words)", "setting": "[1]", "value": "activates Nrf2; also recorded: strongly activate Nrf2 in a dose dependent manner"}, {"measurement": "Doses at which viability of AREc32 cells was not affected", "setting": "[2]", "value": "lower than 70 μM"}, {"measurement": "Concentration giving the strongest protective effect", "setting": "[3]", "value": 5, "unit": "µM"}, {"measurement": "Protection of neurons against oxidative stress (in words)", "setting": "[3]; all tested concentrations (5 μM to 30 μM) except 10 μM", "value": "protects neuronal cells against oxidative stress; also recorded: clear and significant protection"}]}, {"smiles": "O=c1c(O)c(-c2ccc(O)c(O)c2)oc2cc(O)cc(O)c12", "note": "[quercitin]", "values": [{"measurement": "Aqueous solubility (in words)", "setting": "[4]", "value": "very low aqueous solubility"}]}, {"smiles": "COc1cc(/C=C/C(=O)CC(=O)/C=C/c2ccc(O)c(OC)c2)ccc1O", "note": "[curcumin]", "values": [{"measurement": "Aqueous solubility (in words)", "setting": "[4]", "value": "very low aqueous solubility"}]}, {"smiles": "Oc1ccc(C=Cc2cc(O)cc(O)c2)cc1", "note": "[resveratrol]", "values": [{"measurement": "Aqueous solubility (in words)", "setting": "[4]", "value": "very low aqueous solubility"}]}]}
